In patent US5736557A, “N,N-bis (quinolin-4-yl)-diamine derivatives, their preparation and their use as antimalarials” (Hoffman-La Roche, Inc., priority 1994, dated 1998):
≈ marks a conversion by molar mass, not a printed value. Where two headings read alike, the source gives them in different places.

Experiments:
[1] = test system: chloroquine-sensitive strains of the human-pathogenenic Plasmodium falciparum; assay: Growth inhibition of chloroquine-sensitive Plasmodium falciparum strains in vitro; assay type: cell-based; settings: read-out: IC50 growth inhibition
Protocol: (§1) Test Method for the Determination of the Activity Against Plasmodium falciparum in vitro
(§2) The preparations are tested on intraerythrocytary stages of Plasmodium falciparum from asynchronous cultures according to the method of Desjardin et al. (Desjardins, R. E. et al: Quantitative assessment of antimalarial activity in vitro by a semiautomated microdilution technique. Antimicrob. Agents Chemother. 16, 710-718, (1979)).
(§3) The culture medium consists of RPMI 1640 with the addition of 25 mM HEPES, 25 mM NaHCO3, 100 μg/ml neomycin and […] (A^+). Human-A^+ erythrocytes are used as the Plasmodium falciparum host cells. The parasites are maintained at 37° C. in an atmosphere of 3% O2, 4% CO2, 9:3% N2 and 95% relative humidity.
(§4) In order to determine the activity, the preparations are dissolved in dimethyl sulphoxide, pre-diluted in the culture medium to a suitable starting concentration and subsequently titrated-out on to microtitre plates in the 2nd stage over 6-7 steps. After the addition of the parasite culture (0.7% parasitemia in 2.5% erythrocyte suspension) the test plates are incubated under the conditions given above for 48 h-72 h. The parasite growth in the different preparation concentrations is determined using [G--^3 H]-hypoxanthin incorporation compared to untreated control cultures on the same test plates. The 50% growth inhibition (IC50) is calculated according to logit regression analysis from the resulting dosage-activity curve.
(§5) The preparations are tested on at least one chloroquine-resistant and one chloroquine-sensitive Plasmodium falciparum strain. Additional sensitive and resistant strains are included for futher characterization.

[2] = test system: chloroquine-resistant strains of the human-pathogenic Plasmodium falciparum; assay: Growth inhibition of chloroquine-resistant Plasmodium falciparum strains in vitro; assay type: cell-based; settings: for IC50: Plasmodium falciparum; for Resistance index: ratio of average IC50 values for resistant strains and average values for sensitive strains
Protocol: as §1, §2, §3, §4, §5

[3] = test system: Plasmodium berghei; assay: Activity against Plasmodium berghei in vivo in mice; design: species or system Plasmodium berghei (strain ANKA) in mice; settings: percentage parasitemia reduction, mice
Protocol: Test Method for the Determination of the Activity Against Plasmodium berghei in vivo
The preparations are tested on mice infected with malaria pathogens (Plasmodium berghei). Male albino mice (IBM:MORO(SPF), FUELLINSDORF) weighing about 25 g are used as the test animals. They are kept in climatized rooms at 21°-22° C. in groups of 5 animals per cage. They receive ad libitum a diet feed with a low PABA content (NAFAG FUTTER .COPYRGT. No. 9009 PAB-45, PABA content 45 mg/kg) and drinking water. On the first day of the test (DO) the test animals are infected with Plasmodium berghei (strain ANKA). For this there is used heparinized blood of a donor mouse with about 30% parasitemia, which is diluted with physiological saline such that it contains 10^8 parasitized erythrocytes per ml. 0.2 ml of this suspension is injected intravenously (i.v.) into the mice to be treated and into the control mice. In untreated control animals the parasitemia normally reaches 30-40% on the third day after the infection (D+3) and the test animals die between days +5 and +7.
The substances to be tested are dissolved or suspended in distilled water or in a mixture of 7% Tween 80, 3% alcohol (96%) and water. Usually, 0.25 ml of this solution or suspension is administered once subcutaneously and perorally to groups of 5 test animals. Treatment is effected 24 hours after the infection. 10 control animals are treated in the same manner with solvent or suspension medium per test.
All substances are tested in a first test in a single dosage of 10 mg/kg. Only those substances which in this test (10 mg/kg) have shown a parasitaemia reduction of 90% are used for the titration. Suitable dilutions of the test substance can be used to obtain an accurate titration of the activity.
48 hours after the treatment (D+3) blood smears are prepared from all animals using blood from tail veins and are stained with giemsa. The average erythrocyte infection rate (parasitemiea in %) in the control groups as well as in the groups which have been treated with the test compounds is determined by counting under a microscope. The difference in the average values of the infection rates of control group (100%) and treated groups is calculated and expressed as a percentage reduction (GI%). The ED50 or ED90 is determined mathematically by means of the JMP programme (nonlinear fit). The ED50 (ED90) in mg/kg is that dose which after single administration reduces the average erythrocyte infection rate by 50% (90%) in comparison to the control group.

[4] = HB3, strain HB3, chloroquine-sensitive
[5] = NF54, strain NF54, chloroquine-sensitive
[6] = strain FCH5C2, chloroquine-sensitive
[7] = strain RFMEF3, chloroquine-sensitive
[8] = strain Ro73, chloroquine-sensitive
[9] = read-out: IC50 growth inhibition, strain 7G8, chloroquine-resistant
[10] = read-out: IC50 growth inhibition, strain Indo, chloroquine-resistant
[11] = read-out: IC50 growth inhibition, strain ItG2F6, chloroquine-resistant
[12] = read-out: IC50 growth inhibition, strain K1, chloroquine-resistant
[13] = read-out: IC50 growth inhibition, strain RFCF3, chloroquine-resistant
[14] = read-out: IC50 growth inhibition, strain W2, chloroquine-resistant
[15] = read-out: IC50 growth inhibition, strain W2 Mef, chloroquine-resistant
[16] = po, single peroral dose 10 mg/kg, read-out: GI % at 10 mg/kg po
[17] = sc, single subcutaneous dose 10 mg/kg, read-out: GI % at 10 mg/kg sc

SMILES	IC50 [1, 4]	IC50 [1, 5]	IC50 [1, 6]	IC50 [1, 7]	IC50 [1, 8]	IC50 [2, 9]	IC50 [2, 10]	IC50 [2, 11]	IC50 [2, 12]	IC50 [2, 13]	IC50 [2, 14]	IC50 [2, 15]	Resistance index [2]	inhibition in vivo at 10 mg/kg [3, 16]	inhibition in vivo at 10 mg/kg [3, 17]
Clc1ccc2c(Nc3cccc(Nc4ccnc5cc(Cl)ccc45)c3)ccnc2c1 [Example 9, N,N'-Bis-(7-Chloroquinolin-4-yl)-phenylene-1,3-diamine]	0.0095 µg/mL (≈ 0.022 µM)	0.0237 µg/mL (≈ 0.0549 µM)	0.0156 µg/mL (≈ 0.0362 µM)	0.0108 µg/mL (≈ 0.025 µM)	0.0104 µg/mL (≈ 0.0241 µM)	0.0171 µg/mL (≈ 0.0396 µM)	0.0077 µg/mL (≈ 0.0179 µM)	0.0129 µg/mL (≈ 0.0299 µM)	0.0171 µg/mL (≈ 0.0396 µM)	0.0125 µg/mL (≈ 0.029 µM)	0.0121 µg/mL (≈ 0.0281 µM)	0.0121 µg/mL (≈ 0.0281 µM)	0.9	86%	83%
Clc1ccc2c(NCC3CCCC(CNc4ccnc5cc(Cl)ccc45)C3)ccnc2c1 (stereo not drawn) [Example 11, (7-Chloroquinolin-4-yl)-[3-(7-chloroquinolin-4-yl-aminomethyl)-cyclohexylmethyl]-amine]	0.0127 µg/mL (≈ 0.0273 µM)	0.0172 µg/mL (≈ 0.037 µM)	0.0145 µg/mL (≈ 0.0312 µM)	0.0168 µg/mL (≈ 0.0361 µM)	0.0049 µg/mL (≈ 0.0105 µM)	0.0205 µg/mL (≈ 0.044 µM)	0.0144 µg/mL (≈ 0.0309 µM)	0.0116 µg/mL (≈ 0.0249 µM)	0.0178 µg/mL (≈ 0.0382 µM)	0.0141 µg/mL (≈ 0.0303 µM)	0.0099 µg/mL (≈ 0.0213 µM)	0.0159 µg/mL (≈ 0.0342 µM)	1.1	28%	99.6%
